Measured values: ChEMBL document CHEMBL2021914, “Inhibition of platelet adhesion by peptidomimetics mimicking the interactive β-hairpin of glycoprotein Ibα” (Bioorg Med Chem Lett, 2012)
Calls of active or inactive are those of the source. The rule behind the calls is not given here. Where a SMILES comes first, the peptide text is derived from it. Bridges are numbered along the chain shown (N, C = ends).

How the values were obtained:
[1] = target: von Willebrand factor (Homo sapiens) (UniProt P04275); assay: Inhibition of GPIbalpha-vWF binding assessed as inhibition of ristocetin-induced platelet agglutination at 100 uM after 2 mins by static agglutination assay
Chain of von Willebrand factor (Homo sapiens) (P04275 whole entry): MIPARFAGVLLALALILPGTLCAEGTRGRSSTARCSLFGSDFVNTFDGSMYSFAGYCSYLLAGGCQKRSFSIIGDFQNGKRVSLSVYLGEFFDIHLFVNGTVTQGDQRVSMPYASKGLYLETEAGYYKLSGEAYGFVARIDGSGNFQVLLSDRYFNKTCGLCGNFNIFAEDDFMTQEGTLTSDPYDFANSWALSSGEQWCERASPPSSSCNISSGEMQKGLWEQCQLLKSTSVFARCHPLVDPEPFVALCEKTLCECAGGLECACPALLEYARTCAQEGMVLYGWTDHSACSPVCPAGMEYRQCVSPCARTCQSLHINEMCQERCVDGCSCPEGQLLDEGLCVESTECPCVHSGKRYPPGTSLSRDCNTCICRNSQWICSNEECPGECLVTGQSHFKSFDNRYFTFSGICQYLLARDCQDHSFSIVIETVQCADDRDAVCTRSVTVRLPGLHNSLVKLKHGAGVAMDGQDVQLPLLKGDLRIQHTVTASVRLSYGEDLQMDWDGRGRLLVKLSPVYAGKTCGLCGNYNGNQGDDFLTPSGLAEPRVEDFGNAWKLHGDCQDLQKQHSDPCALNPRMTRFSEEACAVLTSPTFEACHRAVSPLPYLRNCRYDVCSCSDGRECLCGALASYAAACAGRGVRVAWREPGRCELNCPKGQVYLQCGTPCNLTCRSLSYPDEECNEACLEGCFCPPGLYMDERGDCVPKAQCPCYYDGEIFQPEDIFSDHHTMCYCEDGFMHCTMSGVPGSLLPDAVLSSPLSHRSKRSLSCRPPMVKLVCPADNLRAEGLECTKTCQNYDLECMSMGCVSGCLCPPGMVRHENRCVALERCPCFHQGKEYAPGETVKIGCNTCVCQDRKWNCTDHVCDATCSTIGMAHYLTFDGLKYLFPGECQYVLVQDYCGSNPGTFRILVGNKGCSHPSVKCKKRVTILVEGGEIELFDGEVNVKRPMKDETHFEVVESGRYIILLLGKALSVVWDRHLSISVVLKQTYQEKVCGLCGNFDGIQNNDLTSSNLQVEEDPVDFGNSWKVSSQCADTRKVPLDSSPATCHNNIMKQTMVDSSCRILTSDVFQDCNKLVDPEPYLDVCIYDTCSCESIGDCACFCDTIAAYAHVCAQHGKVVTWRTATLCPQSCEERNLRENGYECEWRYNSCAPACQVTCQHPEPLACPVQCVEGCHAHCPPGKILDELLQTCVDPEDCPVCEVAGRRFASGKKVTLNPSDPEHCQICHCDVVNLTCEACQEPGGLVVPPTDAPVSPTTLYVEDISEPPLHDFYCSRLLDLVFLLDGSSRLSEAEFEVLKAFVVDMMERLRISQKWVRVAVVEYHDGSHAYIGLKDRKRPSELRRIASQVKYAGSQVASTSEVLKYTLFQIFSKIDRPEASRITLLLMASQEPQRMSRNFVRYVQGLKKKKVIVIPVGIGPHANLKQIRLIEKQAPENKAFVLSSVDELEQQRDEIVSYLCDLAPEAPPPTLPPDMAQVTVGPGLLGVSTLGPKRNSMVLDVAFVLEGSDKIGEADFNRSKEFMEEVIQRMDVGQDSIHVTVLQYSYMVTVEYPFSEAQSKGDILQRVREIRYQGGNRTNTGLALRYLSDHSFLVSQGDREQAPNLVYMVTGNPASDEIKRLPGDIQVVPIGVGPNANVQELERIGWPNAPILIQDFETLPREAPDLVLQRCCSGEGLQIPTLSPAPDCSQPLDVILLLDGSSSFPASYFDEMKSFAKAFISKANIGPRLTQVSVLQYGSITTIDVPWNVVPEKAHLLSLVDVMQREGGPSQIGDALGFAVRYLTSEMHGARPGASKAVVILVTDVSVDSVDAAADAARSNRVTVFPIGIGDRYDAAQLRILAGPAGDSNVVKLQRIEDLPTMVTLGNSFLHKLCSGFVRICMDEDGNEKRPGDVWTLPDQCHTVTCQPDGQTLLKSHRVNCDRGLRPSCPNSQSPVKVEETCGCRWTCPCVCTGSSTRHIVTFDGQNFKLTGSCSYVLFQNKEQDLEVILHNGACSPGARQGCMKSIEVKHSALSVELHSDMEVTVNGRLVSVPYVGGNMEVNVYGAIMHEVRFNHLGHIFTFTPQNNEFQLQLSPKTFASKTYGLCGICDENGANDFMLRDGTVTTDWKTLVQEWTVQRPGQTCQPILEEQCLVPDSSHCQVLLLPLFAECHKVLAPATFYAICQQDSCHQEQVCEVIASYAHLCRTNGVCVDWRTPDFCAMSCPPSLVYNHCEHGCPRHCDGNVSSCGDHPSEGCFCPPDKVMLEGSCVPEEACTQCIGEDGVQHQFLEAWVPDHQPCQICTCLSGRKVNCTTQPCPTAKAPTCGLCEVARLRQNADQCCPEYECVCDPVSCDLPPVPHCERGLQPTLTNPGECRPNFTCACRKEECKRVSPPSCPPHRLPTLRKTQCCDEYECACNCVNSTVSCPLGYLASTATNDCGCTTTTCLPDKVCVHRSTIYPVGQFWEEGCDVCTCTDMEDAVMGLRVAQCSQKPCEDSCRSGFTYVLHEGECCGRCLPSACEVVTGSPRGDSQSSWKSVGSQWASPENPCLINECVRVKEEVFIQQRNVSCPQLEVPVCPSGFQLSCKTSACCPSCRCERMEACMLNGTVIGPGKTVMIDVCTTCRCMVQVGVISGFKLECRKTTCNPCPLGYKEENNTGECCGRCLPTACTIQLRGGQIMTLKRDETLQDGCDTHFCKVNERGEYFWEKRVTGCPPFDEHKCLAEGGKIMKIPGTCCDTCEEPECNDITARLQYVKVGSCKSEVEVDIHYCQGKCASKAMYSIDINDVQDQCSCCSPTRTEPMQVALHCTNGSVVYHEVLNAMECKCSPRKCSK

[2] = target: von Willebrand factor (Homo sapiens) (UniProt P04275); assay: Inhibition of GPIbalpha-human vWF binding assessed as platelet rolling velocity at 100 uM preincubated for 5 mins by parallel plate flow assay with real time imaging microscopy (reference value: 7.1 um/sec)
[3] = target: von Willebrand factor (Homo sapiens) (UniProt P04275); assay: Inhibition of GPIbalpha-vWF binding assessed as ristocetin-induced platelet agglutination at 100 uM after 2 mins by static agglutination assay using washed platelets from male (reference value: 58%); parameters: scale not given: the % may be the effect or the level left
[4] = target: von Willebrand factor (Homo sapiens) (UniProt P04275); assay: Inhibition of GPIbalpha-vWF binding assessed as ristocetin-induced platelet agglutination at 100 uM after 2 mins by static agglutination assay using washed platelets from female (reference value: 61.7%); parameters: scale not given: the % may be the effect or the level left
[5] = target: von Willebrand factor (Homo sapiens) (UniProt P04275); assay: Inhibition of GPIbalpha-vWF binding assessed as ristocetin-induced platelet agglutination at 10 uM after 2 mins by static agglutination assay using platelet rich plasma (reference value: 76.3%); parameters: scale not given: the % may be the effect or the level left
[6] = target: von Willebrand factor (Homo sapiens) (UniProt P04275); assay: Inhibition of GPIbalpha-vWF binding assessed as ristocetin-induced platelet agglutination at 100 uM after 2 mins by static agglutination assay using platelet rich plasma (reference value: 76.3%); parameters: scale not given: the % may be the effect or the level left
[7] = target: von Willebrand factor (Homo sapiens) (UniProt P04275); assay: Inhibition of GPIbalpha-vWF binding assessed as ristocetin-induced platelet agglutination at 1 uM after 2 mins by static agglutination assay using platelet rich plasma (reference value: 76.3%); parameters: scale not given: the % may be the effect or the level left
[8] = target: von Willebrand factor (Homo sapiens) (UniProt P04275); assay: Inhibition of GPIbalpha-vWF binding assessed as inhibition of ristocetin-induced platelet agglutination at 100 uM after 2 mins by static agglutination assay using washed platelets from female
[9] = target: von Willebrand factor (Homo sapiens) (UniProt P04275); assay: Inhibition of GPIbalpha-vWF binding assessed as constant shear stress at 120 dynes/cm'2-induced platelet agglutination at 10 uM preincubated for 5 mins by cone and plate rheometer analysis relative to control using female platelet rich plasma (reference value: 100%); parameters: scale not given: the % may be the effect or the level left
[10] = target: von Willebrand factor (Homo sapiens) (UniProt P04275); assay: Inhibition of GPIbalpha-vWF binding assessed as constant shear stress at 120 dynes/cm'2-induced platelet agglutination at 10 uM preincubated for 5 mins by cone and plate rheometer analysis relative to control using male platelet rich plasma (reference value: 100%); parameters: scale not given: the % may be the effect or the level left
[11] = target: von Willebrand factor (Homo sapiens) (UniProt P04275); assay: Inhibition of GPIbalpha-vWF binding assessed as inhibition of ristocetin-induced platelet agglutination at 100 uM after 2 mins by static agglutination assay using washed platelets from male
[12] = target: von Willebrand factor (Homo sapiens) (UniProt P04275); assay: Inhibition of GPIbalpha-vWF binding assessed as ristocetin-induced platelet agglutination at 100 uM after 2 mins by static agglutination assay using washed platelets (reference value: 66.5%); parameters: scale not given: the % may be the effect or the level left
[13] = target: von Willebrand factor (Homo sapiens) (UniProt P04275); assay: Inhibition of GPIbalpha-vWF binding assessed as ristocetin-induced platelet agglutination at 10 uM after 2 mins by static agglutination assay using washed platelets (reference value: 66.5%); parameters: scale not given: the % may be the effect or the level left
[14] = target: von Willebrand factor (Homo sapiens) (UniProt P04275); assay: Inhibition of GPIbalpha-vWF binding assessed as ristocetin-induced platelet agglutination at 1 uM after 2 mins by static agglutination assay using washed platelets (reference value: 66.5%); parameters: scale not given: the % may be the effect or the level left
[15] = target: von Willebrand factor (Homo sapiens) (UniProt P04275); assay: Inhibition of GPIbalpha-human vWF binding assessed as decrease in arterial shear-induced platelet adhesion to vWF measuring number of platelets adhered after flow at 100 uM preincubated for 5 mins by parallel plate flow assay with real time imaging microscopy
[16] = target: von Willebrand factor (Homo sapiens) (UniProt P04275); assay: Inhibition of GPIbalpha-human vWF binding assessed as decrease in arterial shear-induced platelet adhesion to vWF measuring number of platelets adhered during flow at 100 uM preincubated for 5 mins by parallel plate flow assay with real time imaging microscopy

inhibition [1] [%]	Activity [2] [um/s]	Activity [3] [%]	Activity [4] [%]	Compound	other results
8.9	–	–	–	CC(C)[C@@H]1NC(=O)CNC(=O)[C@H](CCC(N)=O)NC(=O)[C@H](CCCCN)NC(=O)[C@H](Cc2c[nH]c3ccccc23)NC(=O)[C@H](C(C)C)NC(=O)[C@H]2CCCN2C(=O)[C@@H]2CCCN2C(=O)[C@H]([C@@H](C)O)NC(=O)[C@H](C(C)C)NC(=O)[C@H](C)NC(=O)[C@H](CCCCN)NC(=O)[C@H](C(C)C)NC(=O)[C@H](CC(=O)O)NC1=O	–
42.1	–	–	–	CC(=O)N[C@@H](CO)C(=O)N[C@@H](Cc1cnc[nH]1)C(=O)N[C@@H](CC(C)C)C(=O)N[C@@H](CCC(=O)O)C(=O)N[C@H](C(=O)N[C@@H](CC(N)=O)C(=O)N1CCC[C@H]1C(=O)N1CCC[C@@H]1C(=O)N[C@@H](CCC(=O)O)C(=O)N[C@H](C(=O)N[C@@H](CO)C(=O)N[C@@H](CCCCN)C(=O)N[C@H](C(=O)N[C@@H](C)C(=O)O)C(C)C)C(C)C)C(C)C	–
28.5	7	36	57.3	CC(C)[C@H](NC(=O)CNC(=O)[C@@H]1CSSC[C@H](NC(=O)[C@@H](NC(=O)[C@@H](N)CC(=O)O)C(C)C)C(=O)N[C@@H](C)C(=O)N[C@@H](C(C)C)C(=O)N2CCC[C@H]2C(=O)N2CCC[C@@H]2C(=O)N[C@@H](Cc2c[nH]c3ccccc23)C(=O)N[C@@H](CCCCN)C(=O)N1)C(N)=O	–
7.1	–	–	–	CC(C)C[C@@H]1NC(=O)[C@H](Cc2cnc[nH]2)NC(=O)[C@H](CO)NC(=O)[C@H](C)NC(=O)[C@H](C(C)C)NC(=O)[C@H](CCCCN)NC(=O)[C@H](CO)NC(=O)[C@H](C(C)C)NC(=O)[C@H](CCC(=O)O)NC(=O)[C@@H](N)CSSC[C@@H](C(=O)N[C@@H](CC(=O)O)C(=O)N[C@@H](CCCCN)C(N)=O)NC(=O)[C@H](CC(N)=O)NC(=O)[C@H](C(C)C)NC(=O)[C@H](CCC(=O)O)NC1=O (H-CEVSKVASHLEVNCDK-NH2; disulfide 1-14)	–
43.9	8.1	32	50.7	CC(C)[C@@H]1NC(=O)CNC(=O)[C@@H]2CSSC[C@H](NC(=O)[C@H](C(C)C)NC(=O)[C@H](CC(=O)O)NC1=O)C(=O)N[C@@H](C)C(=O)N[C@@H](C(C)C)C(=O)N1CCC[C@H]1C(=O)N1CCC[C@@H]1C(=O)N[C@@H](Cc1c[nH]c3ccccc13)C(=O)N[C@@H](CCCCN)C(=O)N2	Activity [5]: 57.3%; Activity [6]: 46.7%; Activity [7]: 61.7%; inhibition [8]: 17.8%; Activity [9]: 122%; Activity [10]: 107%; inhibition [11]: 44.8%; Activity [12]: 37.3%; Activity [13]: 46%; Activity [14]: 57.5%
44.6	–	–	–	CC(C)[C@@H]1NC(=O)CNC(=O)[C@@H]2CSSC[C@H](NC(=O)[C@H](C(C)C)NC(=O)[C@H](CC(=O)O)NC1=O)C(=O)N[C@@H](C)C(=O)N[C@@H](C(C)C)C(=O)N[C@@H]([C@@H](C)O)C(=O)N1CCC[C@H]1C(=O)N1CCC[C@@H]1C(=O)N[C@@H](C(C)C)C(=O)N[C@@H](Cc1c[nH]c3ccccc13)C(=O)N[C@@H](CCCCN)C(=O)N2	–
–	–	–	–	H-PGPVYVWKQGVDVKAVTSN-OH	inhibition [15]: inactive; inhibition [16]: inactive
–	5.6	58.8	59.7	CC(C)[C@H](NC(=O)CNC(=O)[C@H](CCC(N)=O)NC(=O)[C@H](CCCCN)NC(=O)[C@H](Cc1c[nH]c2ccccc12)NC(=O)[C@H]1CCCN1C(=O)[C@@H]1CCCN1C(=O)[C@@H](NC(=O)[C@H](C)NC(=O)[C@H](CCCCN)NC(=O)[C@@H](NC(=O)[C@@H](N)CC(=O)O)C(C)C)C(C)C)C(=O)O	Activity [9]: 99.7%; Activity [10]: 111%
10.4	–	–	–	CC(C)C[C@@H]1NC(=O)[C@H](Cc2cnc[nH]2)NC(=O)[C@H](CO)NC(=O)[C@H](C)NC(=O)[C@H](C(C)C)NC(=O)[C@H](CCCCN)NC(=O)[C@H](CO)NC(=O)[C@H](C(C)C)NC(=O)[C@H](CCC(=O)O)NC(=O)[C@H]2CCCN2C(=O)[C@@H]2CCCN2C(=O)[C@H](CC(N)=O)NC(=O)[C@H](C(C)C)NC(=O)[C@H](CCC(=O)O)NC1=O	–
40.5	–	–	–	CC(C)[C@@H]1NC(=O)CNC(=O)[C@H](CCC(N)=O)NC(=O)[C@H](CCCCN)NC(=O)[C@H](Cc2c[nH]c3ccccc23)NC(=O)[C@H](C(C)C)NC(=O)[C@H](Cc2ccc(O)cc2)NC(=O)[C@H](C(C)C)NC(=O)[C@@H]2CCCN2C(=O)CNC(=O)[C@@H]2CCCN2C(=O)[C@H](CC(N)=O)NC(=O)[C@H](CO)NC(=O)[C@H]([C@@H](C)O)NC(=O)[C@H](C(C)C)NC(=O)[C@H](C)NC(=O)[C@H](CCCCN)NC(=O)[C@H](C(C)C)NC(=O)[C@H](CC(=O)O)NC1=O (cyclo(AVTSNPGPVYVWKQGVDVK))	inhibition [15]: Active; inhibition [16]: Active
